The results in this text go back to patent US20100048621A1, “MEDICAMENT FOR TREATING CHRONIC OBSTRUCTIVE PULMONARY DISEASE” (priority 2007, published 2010).

In the experiment the test system is elastase-treated model mouse of COPD. The experiment can be described thus: Combination effect of cilostazol/probucol for pulmonary disorder in mouse treated with human neutrophil elastase (COPD model). To be noted: free feeding from 7 days before intratracheal human neutrophil elastase 20 U/50 μL, lungs 3 weeks after elastase, mean±standard deviation, control 178.8±22.4, normal 51.4±1.9, P<0.01 vs control. The experiment is classed as in vivo, C57BL/6J mouse. The source says:
Combination effect of cilostazol/probucol for pulmonary disorder in C57BL/6J mouse treated with elastase produced from human neutrophil.
• Animals: female C57BL/6J mice (5 weeks old) which were purchased from Charles River Laboratories Japan, Inc. were used.
Group composition: the following 5 groups. • Non-treated (normal control) group: n=4 • Elastase-treated group (control group): n=6 • Elastase-treated, 0.3% cilostazol-administrated group: n=6 • Elastase-treated, 0.5% probucol-administrated group: n=6 • Elastase-treated, (0.3% cilostazol+0.5% probucol)−administrated group: n=6
Female C57BL/6J mice (5 weeks old) were divided into the given groups by a stratified randomization (using an SAS software, R 8.1) based on each body weight on the starting day of administration. Shortly after the group division, a MF feed was given to the non-treated group and the control group, and a mixed feed in which cilostazol or/and probucol was added in the given ratio was given to the medicament(s)-treated groups, in free feeding. […]
The following groups were statistically analyzed in order to study about the effect of the single-administration and combination-administration of the medicament(s). • 1) Elastase-treated group (control group) • 2) 0.3% Cilostazol-administrated group • 3) 0.5% Probucol-administrated group • 4) (0.3% Cilostazol+0.5% probucol)−administrated group […]

SMILES strings stand for the structures.

`O=C1CCc2cc(OCCCCc3nnnn3C3CCCCC3)ccc2N1` [cilostazol, 6-[4-(1-cyclohexyl-1H-tetrazol-5-yl)butoxy]-3,4-dihydrocarbostyril]: the “mean linear intercept of pulmonary alveolus” value (0.3% cilostazol in mixed feed) is 116.9±14.3 μm. For `CC(C)(Sc1cc(C(C)(C)C)c(O)c(C(C)(C)C)c1)Sc1cc(C(C)(C)C)c(O)c(C(C)(C)C)c1` [probucol, 4,4′-isopropylidenedithiobis[2,6-di-tert-butylphenol]], where the note is “0.5% probucol in mixed feed”, the “mean linear intercept of pulmonary alveolus” value turned out to be 86.2±4.8 μm.
